Measured values: patent US6166084A, “Compositions for the treatment of chronic wounds” (Johnson & Johnson Medical, Ltd., priority 1996, dated 2000)

Assays:
[1] = test system: TNF-α induced CD 54, Intercellular Adhesion Molecule (ICAM-1) expression by Human Umbilical Vein Endothelial Cells (HUVEC); test: TNF-α induced ICAM-1 expression by HUVEC (ELISA); assay type: cell-based; details: TNF-α 0.5 ng/ml
Experimental: The effects of NAC on the expression of the TNF-α induced CD 54, Intercellular Adhesion Molecule (ICAM-1) by Human Umbilical Vein Endothelial Cells (HUVEC) was assessed as follows.
DL-Buthionine sulphoximine (BSO) was used to pretreat the cells. BSO is an inhibitor of glutathione synthesis and therefore reduces the glutathione content of the HUVEC rendering them more susceptible to oxidative stress and mimicking the conditions implicated in chronic wounds. NAC was used as a treatment to inhibit the expression of ICAM-1 by interfering with the TNF-α mediated intracellular signalling.
HUVEC were seeded to wells of 96 well plates (5000 cells per well in 100 μl Endothelial Growth Medium (EGM)). The plates were allowed to grow until the cells reached 90% confluence. The medium was decanted from each plate and the following treatments (all volumes were 200 μl, performed in quadruplicate wells) where then applied to the HUVEC. […]
ICAM-1 expression, stimulated by inflammatory mediators such as tumour necrosis factor, can be detected on the surface of cells (endothelial cells, monocytes, T&B cells, keratinocytes, chondrocytes and epithelial cells) using ELISA techniques, as follows: […]
8. Stop the reaction when colour develops by the addition of 1M H2 SO4 (100 μl per well) and read the absorbance at 450 nm using a Dynatech (RTM) plate reader.

[2] = test system: matrix metalloproteinases (MMP) from human wound fluid; test: MMP activity by gelatin SDS-PAGE zymography; assay type: biochemical; details: 18 hours at 37° C., pH 7.8
Experimental: The effect of NAC concentration on the activity of matrix metalloproteinases (MMP) from human wound fluid was assessed as follows.
The MMP activity was determined by gelatin SDS polyacrylamide gel electrophoresis (zymography) similar to that described by Heussen C. and Dowdle E. B. in Anal. Biochem. 102:196-202 (1980).
The experimental method was as follows:
1. Gel preparation. The following components were mixed thoroughly:
1. 5 ml 30% acrylamide/bis acrylamide (30 g acrylamide (Sigma A8887) plus 0.8 g N-N'-methylene bis-acrylamide (Sigma M7279) in 100 ml deionised water).
2. 6.05 ml deionised water.
3. 3.75 ml 1.5M Tris-HCl buffer.
4. 150 μl 10% sodium dodecyl sulphate (SDS. Fisons S/5200/53).
5. 1 ml warm (60° C.) gelatin (Sigma G9382) solution (7.5 mgml^-1).
6. Immediately prior to casting the gel 50 μl 10% ammonium persulphate (APS, Fisons A/6160/53) and 12.5 μl tetramethylethylenediamine (TEMED, Sigma T9281).
4.5 ml of the above mixture was added to the electrophoresis apparatus (Dual Mini Slab Kit, Atto Corporation), and covered with propanol saturated water. The gel was left gel to polymerise for at least 45 minutes. Then propanol solution was decanted and added to 1 ml of stacking gel solution (3.15 ml deionised water, 0.75 ml 30% acrylamide/bis-acrylamide, […] 1.5M Tris-HCl, 50 μl 10% SDS, 50 μl ammonium persulphate and 10 μl TEMED). Finally, a sample comb (8 lane comb) was inserted and the gel left to polymerise for at least 45 minutes.
2. Sample preparation: A matrix metalloprotease (MMP) sample (10% solution of human acute wound fluid diluted in MMP proteolysis buffer (see below)) was diluted 1:1 with sample buffer (6.3 ml 0.5M Tris-HCl pH 6.8, 2.5 ml glycerol, 0.5 g SDS, 16.2 ml deionised water and bromophenol blue to colour).
3. Sample loading and electrophoresis: 20 μl of the MMP samples were loaded into 8 lanes of the gel. The MMP's were separated for 1 hour at 20 mA/100V per gel until the dye front was almost at the bottom of the gel. The gel apparatus was then dismantled and the gel removed.
4. Proteolysis: Washed gels for 30 minutes with 100 ml 2.5% Triton X-100. The procedure was repeated three times. The gels were cut into slices consisting of two lanes per slice. The gel slices were incubated in 20 ml proteolysis buffer (50 mM Tris-HCl pH 7.8, 50 mM CaCl2, 0.5M NaCl) containing the following treatments (each treatment was adjusted to pH 7.8) for 18 hours at 37° C.: (1) proteolysis buffer alone; (2) N-acetyl cysteine (44 mM); (3) N-acetyl cysteine (4.4 mM); (4) N-acetyl cysteine (0.44 mM).
5. […]
The area of the individual zones of clearance on the gels, which are due to proteinase activity, were accurately measured by the Optilab (RTM) system. […]

Q: How did the “inhibition of ICAM-1 expression (concentration dependence)” value ([1]; BSO (50 μM) pretreated HUVEC, NAC 1.1, 3.3, 10 mM, FIG. 1) turn out when CC(=O)N[C@@H](CS)C(=O)O [NAC, N-acetyl-3-mercaptoalanine] was run?
A: concentration-dependent inhibition

Q: And the “inhibition of ICAM-1 expression, all NAC concentrations” value ([1]; NAC 10, 3.3 and 1.1 mM, P<0.05, Students T-test, BSO pretreated HUVEC)?
A: significant inhibition

Q: What about the “inhibition of MMP activity” value ([2]; 0.44 mM NAC) of the same molecule?
A: approximately 10%

Q: What about the “inhibition of MMP activity” value ([2]; 4.4 mM NAC solution) of the same molecule?
A: Approximately 70%

Q: And the “inhibition of MMP activity” value ([2]; 44 mM NAC solution)?
A: substantially complete

Q: And the “inhibition of MMP activity (concentration dependence)” value ([2]; NAC 0.44, 4.4, 44 mM, FIG. 2)?
A: clear concentration-dependent inhibition
